In publication PMC11995724, “Antibiotic target discovery by integrated phenotypic and activity-based profiling of electrophilic fragments” (Cell chemical biology, 2025):
Counter-ions that a name gives are not always drawn.

Assay: in vitro
Settings: human, hek293t cells

| Structure (SMILES) | viability at 48 h, 25 µM |
| --- | --- |
| O=C(CCl)NC1CCC(c2nc(-c3ccccc3)n[nH]2)CC1 (stereo not drawn) [6-G19, 2-chloro-N-[4-(3-phenyl-1H-1,2,4-triazol-5-yl)cyclohexyl]acetamide] | 39.3% |
| O=C(CCl)N[C@H](CO)Cc1ccccc1 [6-G20, 2-chloro-N-[(2S)-1-hydroxy-3-phenylpropan-2-yl]acetamide] | 81.9% |
| C[C@@H](NC(=O)CCl)c1ccc(F)cc1 [6-G21, 2-chloro-N-[(1R)-1-(4-fluorophenyl)ethyl]acetamide] | 129% |
| O=C(CCl)NCCc1cnn(-c2ccccc2)c1 [6-G22, 2-chloro-N-[2-(1-phenyl-1H-pyrazol-4-yl)ethyl]acetamide] | 1.31% |
| O=C(CCl)Nc1cc(S(=O)(=O)N2CCOCC2)ccc1Cl [6-H03, 2-chloro-N-[2-chloro-5-(morpholine-4-sulfonyl)phenyl]acetamide] | 1.8% |
| O=C(CCl)NCCS(=O)(=O)N1CCc2ccccc21 [6-H04, 2-chloro-N-[2-(2,3-dihydro-1H-indole-1-sulfonyl)ethyl]acetamide] | 14.1% |
| CC1CCCN(C(=O)C(NC(=O)CCl)c2cnn(C)c2)C1 (stereo not drawn) [6-H05, 2-chloro-N-[1-(1-methyl-1H-pyrazol-4-yl)-2-(3-methylpiperidin-1-yl)-2-oxoethyl]acetamide] | 104% |
| O=C(CCl)N(Cc1ccc(Cl)c([N+](=O)[O-])c1)c1ccccc1 [6-H06, 2-chloro-N-[(4-chloro-3-nitrophenyl)methyl]-N-phenylacetamide] | 0.976% |
| Cc1ccc2[nH]c3c(c2c1)CCCC3N(C)C(=O)CCl (stereo not drawn) [6-H07, 2-chloro-N-methyl-N-(6-methyl-2,3,4,9-tetrahydro-1H-carbazol-1-yl)acetamide] | 0.1% |
| O=C(CCl)NCc1cc(C(F)F)no1 [6-H08, 2-chloro-N-{[3-(difluoromethyl)-1,2-oxazol-5-yl]methyl}acetamide] | 5.77% |
| CC(Cl)C(=O)N1CCCC(n2ncc(N(C)C(C)C)cc2=O)C1 (stereo not drawn) [6-H09, 2-[1-(2-chloropropanoyl)piperidin-3-yl]-5-[methyl(propan-2-yl)amino]-2,3-dihydropyridazin-3-one] | 97.3% |
| CC(Cl)C(=O)Nc1ccccc1Sc1ccccc1 (stereo not drawn) [6-H10, 2-chloro-N-[2-(phenylsulfanyl)phenyl]propanamide] | 116% |
| CN(CCNC(=O)CCl)S(=O)(=O)c1cccs1 [6-H11, 2-chloro-N-[2-(N-methylthiophene-2-sulfonamido)ethyl]acetamide] | 11.1% |
| CN(C)S(=O)(=O)c1ccc(Cl)c(NC(=O)CCl)c1 [6-H12, 2-chloro-N-[2-chloro-5-(dimethylsulfamoyl)phenyl]acetamide] | 0.99% |
| CC(Cl)C(=O)NC(C)c1nnc2n1CCCC2 (stereo not drawn) [6-H13, 2-chloro-N-(1-{5H,6H,7H,8H-[1,2,4]triazolo[4,3-a]pyridin-3-yl}ethyl)propanamide] | 105% |
| CC(Cl)C(=O)NCc1cc(C(F)F)nn1C (stereo not drawn) [6-H14, 2-chloro-N-{[3-(difluoromethyl)-1-methyl-1H-pyrazol-5-yl]methyl}propanamide] | 108% |
| Cc1nsc(N2CCN(C(=O)C(C)Cl)CC2)c1C#N (stereo not drawn) [6-H15, 5-[4-(2-chloropropanoyl)piperazin-1-yl]-3-methyl-1,2-thiazole-4-carbonitrile] | 91.4% |
| CCc1ccc(OC(C)C(=O)N2CCN(C(=O)C(C)Cl)CC2)cc1 (stereo not drawn) [6-H16, 1-[4-(2-chloropropanoyl)piperazin-1-yl]-2-(4-ethylphenoxy)propan-1-one] | 105% |
| CC(Cl)C(=O)N1CCN(CCOc2ccc3c(c2)CCC3)CC1 (stereo not drawn) [6-H17, 2-chloro-1-{4-[2-(2,3-dihydro-1H-inden-5-yloxy)ethyl]piperazin-1-yl}propan-1-one] | 3.42% |
| CC1CC(c2ccccc2F)N(C(=O)C(C)Cl)C1 (stereo not drawn) [6-H18, 2-chloro-1-[2-(2-fluorophenyl)-4-methylpyrrolidin-1-yl]propan-1-one] | 116% |
| CC(Cl)C(=O)N1Cc2ccccc2OC(C)(C)C1 (stereo not drawn) [6-H19, 2-chloro-1-(2,2-dimethyl-2,3,4,5-tetrahydro-1,4-benzoxazepin-4-yl)propan-1-one] | 91% |
| CC(Cl)C(=O)NCC1c2ccccc2C(=O)N1Cc1ccccc1 (stereo not drawn) [6-H20, N-[(2-benzyl-3-oxo-2,3-dihydro-1H-isoindol-1-yl)methyl]-2-chloropropanamide] | 107% |
| CC(Cl)C(=O)NC1CCC(C)(C)c2ccccc21 (stereo not drawn) [6-H21, 2-chloro-N-(4,4-dimethyl-1,2,3,4-tetrahydronaphthalen-1-yl)propanamide] | 100% |
| CC(Cl)C(=O)N1CCOCC(n2cccn2)C1 (stereo not drawn) [6-H22, 2-chloro-1-[6-(1H-pyrazol-1-yl)-1,4-oxazepan-4-yl]propan-1-one] | 105% |
| COc1cccc(NC(=O)C(C)Cl)c1 (stereo not drawn) [6-I03, 2-chloro-N-(3-methoxyphenyl)propanamide] | 105% |
| CC(Cl)C(=O)NCc1ccc(Cl)cc1 (stereo not drawn) [6-I04, 2-chloro-N-[(4-chlorophenyl)methyl]propanamide] | 107% |
| Cc1ccc2nc(-c3ccc(NC(=O)CCl)cc3)sc2c1 [6-I05, 2-chloro-N-[4-(6-methyl-1,3-benzothiazol-2-yl)phenyl]acetamide] | 3.47% |

| Structure (SMILES) | viability at 48 h, 25 µM |
| --- | --- |
| COC(=O)C1(NC(=O)CCl)CC1 [6-I06, methyl 1-(2-chloroacetamido)cyclopropane-1-carboxylate] | 101% |
| O=C(CCl)NCC1(c2ccccc2)CCOCC1 [6-I07, 2-chloro-N-[(4-phenyloxan-4-yl)methyl]acetamide] | 89.3% |
| Cc1nn(-c2ccccc2)c(C)c1CNC(=O)CCl [6-I08, 2-chloro-N-[(3,5-dimethyl-1-phenyl-1H-pyrazol-4-yl)methyl]acetamide] | 2.35% |
| N#Cc1c(NC(=O)CCl)oc(-c2cccs2)c1-c1cccs1 [6-I09, 2-chloro-N-[3-cyano-4,5-bis(thiophen-2-yl)furan-2-yl]acetamide] | 28.5% |
| Cc1c(Cl)cccc1NC(=O)C(C)Cl (stereo not drawn) [6-I10, 2-chloro-N-(3-chloro-2-methylphenyl)propanamide] | 110% |
| CCOC(=O)c1c(NC(=O)CCl)sc2c1CCCC2 [6-I11, ethyl 2-(2-chloroacetamido)-4,5,6,7-tetrahydro-1-benzothiophene-3-carboxylate] | 44.9% |
| N#CCCN(C(=O)CCl)c1ccccc1 [6-I12, 2-chloro-N-(2-cyanoethyl)-N-phenylacetamide] | 1.62% |
| CC(Cl)C(=O)N(C)Cc1ccccc1 (stereo not drawn) [6-I13, N-benzyl-2-chloro-N-methylpropanamide] | 105% |
| CC(Cl)C(=O)Nc1cc([N+](=O)[O-])ccc1Cl (stereo not drawn) [6-I14, 2-chloro-N-(2-chloro-5-nitrophenyl)propanamide] | 117% |
| CCn1cc(NC(=O)CCl)cn1 [6-I15, 2-chloro-N-(1-ethyl-1H-pyrazol-4-yl)acetamide hydrochloride] | 10.5% |
| CC(C)c1ccc(CCNC(=O)CCl)cc1 [6-I16, 2-chloro-N-{2-[4-(propan-2-yl)phenyl]ethyl}acetamide] | 71% |
| CC(C)N(c1ccccc1)c1ccc(NC(=O)CCl)cc1 [6-I17, 2-chloro-N-{4-[phenyl(propan-2-yl)amino]phenyl}acetamide] | 0.67% |
| CC(Cl)C(=O)Nc1ncnc2[nH]cnc12 (stereo not drawn) [6-I18, 2-chloro-N-(9H-purin-6-yl)propanamide] | 100% |
| CC(C)C(NC(=O)CCl)c1ccc(F)c(C#N)c1 (stereo not drawn) [6-I19, 2-chloro-N-[1-(3-cyano-4-fluorophenyl)-2-methylpropyl]acetamide] | 1.83% |
| O=C(CCl)Nc1oncc1-c1ccccc1 [6-I20, 2-chloro-N-(4-phenyl-1,2-oxazol-5-yl)acetamide] | 1.45% |
| O=C(CCl)N[C@H]1CCCc2ccccc21 [6-I21, 2-chloro-N-[(1S)-1,2,3,4-tetrahydronaphthalen-1-yl]acetamide] | 24% |
| CCCc1ccc(NC(=O)CCl)cc1 [6-I22, 2-chloro-N-(4-propylphenyl)acetamide] | 0.417% |
| O=C(CCl)NCc1cnn(-c2ccccc2)n1 [6-J03, 2-chloro-N-[(2-phenyl-2H-1,2,3-triazol-4-yl)methyl]acetamide] | 1.68% |
| Cc1ccc(NC(=O)NC(=O)C(C)Cl)c(C)c1 (stereo not drawn) [6-J04, 3-(2-chloropropanoyl)-1-(2,4-dimethylphenyl)urea] | 96.6% |
| Cc1cccc(CN(C(=O)CCl)C(C)C)c1 [6-J05, 2-chloro-N-[(3-methylphenyl)methyl]-N-(propan-2-yl)acetamide] | 0.679% |
| COc1ccccc1N=Nc1ccc(NC(=O)CCl)cc1C [6-J06, 2-chloro-N-{4-[2-(2-methoxyphenyl)diazen-1-yl]-3-methylphenyl}acetamide] | 0.765% |
| CC(=O)N(Cc1ncc(C(C)C)o1)C1CCN(C(=O)C(C)Cl)C1 (stereo not drawn) [6-J07, N-[1-(2-chloropropanoyl)pyrrolidin-3-yl]-N-{[5-(propan-2-yl)-1,3-oxazol-2-yl]methyl}acetamide] | 103% |
| CC(Cl)C(=O)Nc1ccccc1OC(F)F (stereo not drawn) [6-J08, 2-chloro-N-[2-(difluoromethoxy)phenyl]propanamide] | 115% |
| CC(Cl)C(=O)N(C)Cc1nccn1Cc1ccccc1 (stereo not drawn) [6-J09, N-[(1-benzyl-1H-imidazol-2-yl)methyl]-2-chloro-N-methylpropanamide] | 91.5% |
| O=C(CCl)Nc1cc(-c2ccc3c(c2)CCC3)nn1-c1ccccc1 [6-J10, 2-chloro-N-[3-(2,3-dihydro-1H-inden-5-yl)-1-phenyl-1H-pyrazol-5-yl]acetamide] | 0.354% |
| CCN(C(=O)CCl)C(c1ccccc1)c1ccc(F)cc1 (stereo not drawn) [6-J11, 2-chloro-N-ethyl-N-[(4-fluorophenyl)(phenyl)methyl]acetamide] | 0.263% |
| O=C(CCl)Nc1cc(S(=O)(=O)N2CCOCC2)ccc1O [6-J12, 2-chloro-N-[2-hydroxy-5-(morpholine-4-sulfonyl)phenyl]acetamide] | 116% |
